For 4 molecules, AC50 results are on record in ChEMBL document CHEMBL5291721, “A preclinical secondary pharmacology resource illuminates target-adverse drug reaction associations of marketed drugs” (Nat Commun, 2023).

For assay [1], the target named is Beta-2 adrenergic receptor (Homo sapiens, UniProt P07550).
Assay [2] concerns the target Voltage-dependent L-type calcium channel subunit alpha-1C (Rattus norvegicus, UniProt P22002). Type of assay: functional.
Assay [3] deals with T1, Muscarinic acetylcholine receptor M2 (Homo sapiens, UniProt P08172).
T1 sequence (P08172 whole entry): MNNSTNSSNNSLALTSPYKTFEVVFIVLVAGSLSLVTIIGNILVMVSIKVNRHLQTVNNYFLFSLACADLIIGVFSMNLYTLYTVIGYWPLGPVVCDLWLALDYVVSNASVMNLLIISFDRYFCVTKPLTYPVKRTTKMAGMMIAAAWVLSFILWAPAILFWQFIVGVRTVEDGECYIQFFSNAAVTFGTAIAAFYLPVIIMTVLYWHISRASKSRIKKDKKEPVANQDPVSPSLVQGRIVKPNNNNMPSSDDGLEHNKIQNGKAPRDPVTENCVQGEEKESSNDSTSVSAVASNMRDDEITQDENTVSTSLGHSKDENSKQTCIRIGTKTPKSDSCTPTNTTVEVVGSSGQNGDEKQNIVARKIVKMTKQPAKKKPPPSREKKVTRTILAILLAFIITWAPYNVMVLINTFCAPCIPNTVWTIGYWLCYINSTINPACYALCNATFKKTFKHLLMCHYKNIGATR
Type of assay: functional, cell-based.

For assay [4], the target named is T1, Muscarinic acetylcholine receptor M2. Type of assay: functional, cell-based. This is another data set of the same source.
The target of assay [5] is Gamma-aminobutyric acid receptor subunit alpha-1 (Rattus norvegicus, UniProt P62813).
For assay [6], the target named is 5-hydroxytryptamine receptor 2B (Homo sapiens, UniProt P41595). Type of assay: functional, cell-based.
Assay [7] addresses T2, 5-hydroxytryptamine receptor 2C (Homo sapiens, UniProt P28335).
T2 sequence (P28335 whole entry): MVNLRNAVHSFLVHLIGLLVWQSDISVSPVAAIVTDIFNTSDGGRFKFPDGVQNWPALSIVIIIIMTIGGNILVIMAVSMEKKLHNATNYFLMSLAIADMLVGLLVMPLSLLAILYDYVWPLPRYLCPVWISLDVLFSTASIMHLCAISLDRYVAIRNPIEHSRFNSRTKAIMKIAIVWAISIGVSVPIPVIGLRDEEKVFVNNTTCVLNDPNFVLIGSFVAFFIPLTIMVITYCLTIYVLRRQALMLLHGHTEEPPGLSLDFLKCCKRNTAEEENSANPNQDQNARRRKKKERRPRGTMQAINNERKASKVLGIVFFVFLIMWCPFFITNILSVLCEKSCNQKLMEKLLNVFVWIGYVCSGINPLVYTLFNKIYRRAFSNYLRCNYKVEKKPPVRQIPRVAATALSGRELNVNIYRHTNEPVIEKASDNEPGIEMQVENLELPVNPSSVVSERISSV

The target of assay [8] is Delta-type opioid receptor (Homo sapiens, UniProt P41143).
The target in assay [9] is 3',5'-cyclic-AMP phosphodiesterase 4D (Homo sapiens, UniProt Q08499). In kind it is functional.
A further assay has as its target T3, Progesterone receptor (Homo sapiens, UniProt P06401).
T3 sequence (P06401 whole entry): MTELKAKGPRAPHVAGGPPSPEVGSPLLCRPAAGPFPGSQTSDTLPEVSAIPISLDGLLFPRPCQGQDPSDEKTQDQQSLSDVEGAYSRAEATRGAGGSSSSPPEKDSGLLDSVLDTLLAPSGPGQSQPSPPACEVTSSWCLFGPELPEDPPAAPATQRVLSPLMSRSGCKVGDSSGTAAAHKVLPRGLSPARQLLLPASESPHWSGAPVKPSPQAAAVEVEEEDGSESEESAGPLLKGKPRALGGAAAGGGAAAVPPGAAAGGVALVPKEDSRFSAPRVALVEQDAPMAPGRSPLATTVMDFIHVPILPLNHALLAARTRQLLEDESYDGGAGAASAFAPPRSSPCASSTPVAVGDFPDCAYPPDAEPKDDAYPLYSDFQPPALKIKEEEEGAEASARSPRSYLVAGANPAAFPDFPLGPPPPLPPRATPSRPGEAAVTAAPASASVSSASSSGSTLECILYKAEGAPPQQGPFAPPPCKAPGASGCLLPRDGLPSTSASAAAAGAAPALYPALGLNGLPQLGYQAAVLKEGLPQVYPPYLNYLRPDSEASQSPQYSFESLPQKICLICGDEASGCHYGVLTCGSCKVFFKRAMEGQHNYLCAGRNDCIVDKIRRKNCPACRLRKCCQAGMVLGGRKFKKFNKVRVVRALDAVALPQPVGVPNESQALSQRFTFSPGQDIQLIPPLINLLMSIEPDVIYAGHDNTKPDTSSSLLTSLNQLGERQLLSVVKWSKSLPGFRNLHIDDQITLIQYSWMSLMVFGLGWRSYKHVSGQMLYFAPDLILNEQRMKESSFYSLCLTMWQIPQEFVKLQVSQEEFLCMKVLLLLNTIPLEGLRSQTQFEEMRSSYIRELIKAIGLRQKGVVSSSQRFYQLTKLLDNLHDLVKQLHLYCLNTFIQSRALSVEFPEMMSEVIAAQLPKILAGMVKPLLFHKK
Type of assay: functional.

Assay [10] addresses T4, Prostaglandin G/H synthase 1 (Rattus norvegicus, UniProt Q63921).
T4 sequence (Q63921 whole entry): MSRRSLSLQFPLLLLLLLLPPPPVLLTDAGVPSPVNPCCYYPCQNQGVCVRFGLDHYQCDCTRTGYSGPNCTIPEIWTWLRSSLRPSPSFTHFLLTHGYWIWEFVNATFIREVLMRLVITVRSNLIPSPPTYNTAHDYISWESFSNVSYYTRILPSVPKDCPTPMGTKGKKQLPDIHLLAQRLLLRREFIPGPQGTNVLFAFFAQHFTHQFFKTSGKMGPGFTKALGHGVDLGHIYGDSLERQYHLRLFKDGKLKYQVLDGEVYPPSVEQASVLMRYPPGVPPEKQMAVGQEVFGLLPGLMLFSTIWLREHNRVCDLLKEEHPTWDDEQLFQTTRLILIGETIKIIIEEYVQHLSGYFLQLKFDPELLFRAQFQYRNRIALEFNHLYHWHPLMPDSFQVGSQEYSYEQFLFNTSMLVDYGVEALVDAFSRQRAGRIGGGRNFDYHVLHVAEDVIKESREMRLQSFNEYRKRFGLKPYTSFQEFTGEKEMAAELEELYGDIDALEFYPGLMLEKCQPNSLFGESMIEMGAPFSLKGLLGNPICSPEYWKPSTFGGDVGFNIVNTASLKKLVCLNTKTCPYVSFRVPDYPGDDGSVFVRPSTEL
Type of assay: functional.

For assay [11], the target named is Sodium-dependent noradrenaline transporter (Homo sapiens, UniProt P23975).

For orientation: AC50 means the midpoint of the concentration-response curve, whichever way the signal moves.
Note: assay procedure not described here.

3',5'-cyclic-AMP phosphodiesterase 4D, sequence (Q08499 whole entry): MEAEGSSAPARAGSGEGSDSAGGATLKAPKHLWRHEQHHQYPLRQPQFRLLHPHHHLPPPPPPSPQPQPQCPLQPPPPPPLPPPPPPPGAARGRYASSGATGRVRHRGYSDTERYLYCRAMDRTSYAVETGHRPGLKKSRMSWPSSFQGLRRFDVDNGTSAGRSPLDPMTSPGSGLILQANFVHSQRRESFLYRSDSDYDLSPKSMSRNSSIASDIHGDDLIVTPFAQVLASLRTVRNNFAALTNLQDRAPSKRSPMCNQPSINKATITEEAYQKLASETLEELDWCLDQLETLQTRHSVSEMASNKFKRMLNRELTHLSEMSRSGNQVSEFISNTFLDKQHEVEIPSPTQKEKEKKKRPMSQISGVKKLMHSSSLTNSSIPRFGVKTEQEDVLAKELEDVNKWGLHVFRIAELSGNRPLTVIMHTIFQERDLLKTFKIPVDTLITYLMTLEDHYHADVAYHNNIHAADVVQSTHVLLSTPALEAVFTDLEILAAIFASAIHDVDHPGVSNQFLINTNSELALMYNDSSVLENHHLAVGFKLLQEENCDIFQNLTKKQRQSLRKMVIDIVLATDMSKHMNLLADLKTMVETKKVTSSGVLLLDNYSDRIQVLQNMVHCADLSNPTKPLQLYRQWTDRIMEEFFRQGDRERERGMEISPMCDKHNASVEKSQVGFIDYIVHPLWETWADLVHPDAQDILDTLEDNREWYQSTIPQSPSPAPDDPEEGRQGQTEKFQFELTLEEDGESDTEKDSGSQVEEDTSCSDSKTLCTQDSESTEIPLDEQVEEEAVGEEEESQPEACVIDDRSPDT
Delta-type opioid receptor, sequence (P41143 whole entry): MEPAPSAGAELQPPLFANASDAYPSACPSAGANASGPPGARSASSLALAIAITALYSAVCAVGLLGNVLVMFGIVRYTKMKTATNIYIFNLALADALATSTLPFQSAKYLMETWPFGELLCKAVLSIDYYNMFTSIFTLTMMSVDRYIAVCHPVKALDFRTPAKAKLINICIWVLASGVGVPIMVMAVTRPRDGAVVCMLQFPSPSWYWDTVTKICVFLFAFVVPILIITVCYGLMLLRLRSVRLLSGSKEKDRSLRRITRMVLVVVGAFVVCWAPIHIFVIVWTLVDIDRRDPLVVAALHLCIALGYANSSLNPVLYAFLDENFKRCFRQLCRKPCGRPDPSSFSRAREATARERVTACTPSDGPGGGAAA
5-hydroxytryptamine receptor 2B, sequence (P41595 whole entry): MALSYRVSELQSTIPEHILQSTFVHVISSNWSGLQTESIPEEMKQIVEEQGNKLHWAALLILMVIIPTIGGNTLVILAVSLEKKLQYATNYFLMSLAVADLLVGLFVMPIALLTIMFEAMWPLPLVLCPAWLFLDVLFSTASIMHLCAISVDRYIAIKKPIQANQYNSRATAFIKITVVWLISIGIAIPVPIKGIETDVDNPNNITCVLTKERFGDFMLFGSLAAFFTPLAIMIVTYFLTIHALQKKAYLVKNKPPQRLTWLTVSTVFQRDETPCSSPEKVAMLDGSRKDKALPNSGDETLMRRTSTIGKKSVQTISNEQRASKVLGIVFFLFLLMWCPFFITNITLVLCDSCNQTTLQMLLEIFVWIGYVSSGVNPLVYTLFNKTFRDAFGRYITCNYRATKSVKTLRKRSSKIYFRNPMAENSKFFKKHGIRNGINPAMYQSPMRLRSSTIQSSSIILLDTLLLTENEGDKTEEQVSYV
Sodium-dependent noradrenaline transporter, sequence (P23975 whole entry): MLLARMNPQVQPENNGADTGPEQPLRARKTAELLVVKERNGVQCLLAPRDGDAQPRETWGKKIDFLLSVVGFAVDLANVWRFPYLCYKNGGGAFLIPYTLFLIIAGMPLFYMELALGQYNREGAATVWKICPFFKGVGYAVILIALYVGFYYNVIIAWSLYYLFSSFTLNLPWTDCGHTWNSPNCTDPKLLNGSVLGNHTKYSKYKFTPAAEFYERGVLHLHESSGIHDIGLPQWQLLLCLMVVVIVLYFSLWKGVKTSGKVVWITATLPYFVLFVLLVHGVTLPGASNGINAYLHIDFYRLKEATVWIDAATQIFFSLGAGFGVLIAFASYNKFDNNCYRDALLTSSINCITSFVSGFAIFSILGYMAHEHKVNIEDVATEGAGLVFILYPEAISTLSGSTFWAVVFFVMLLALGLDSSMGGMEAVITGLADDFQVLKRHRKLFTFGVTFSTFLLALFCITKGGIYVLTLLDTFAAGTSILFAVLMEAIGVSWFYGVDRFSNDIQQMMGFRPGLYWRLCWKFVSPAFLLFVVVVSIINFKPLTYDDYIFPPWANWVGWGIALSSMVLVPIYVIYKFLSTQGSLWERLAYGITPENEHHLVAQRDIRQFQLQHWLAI
Gamma-aminobutyric acid receptor subunit alpha-1, sequence (P62813 whole entry): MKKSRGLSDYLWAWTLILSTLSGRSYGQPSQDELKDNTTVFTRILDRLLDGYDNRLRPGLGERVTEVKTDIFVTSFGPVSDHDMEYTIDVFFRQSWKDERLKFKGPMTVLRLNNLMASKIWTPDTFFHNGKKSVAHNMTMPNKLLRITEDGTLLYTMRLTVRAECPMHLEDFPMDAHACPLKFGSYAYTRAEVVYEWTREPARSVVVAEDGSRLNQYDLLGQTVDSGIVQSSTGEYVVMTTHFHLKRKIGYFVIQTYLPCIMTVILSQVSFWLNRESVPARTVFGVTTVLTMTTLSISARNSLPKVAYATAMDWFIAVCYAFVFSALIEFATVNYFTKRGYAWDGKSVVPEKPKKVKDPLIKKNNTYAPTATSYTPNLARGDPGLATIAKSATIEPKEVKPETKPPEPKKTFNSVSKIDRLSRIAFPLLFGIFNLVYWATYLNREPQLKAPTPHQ
Voltage-dependent L-type calcium channel subunit alpha-1C, sequence (P22002 whole entry): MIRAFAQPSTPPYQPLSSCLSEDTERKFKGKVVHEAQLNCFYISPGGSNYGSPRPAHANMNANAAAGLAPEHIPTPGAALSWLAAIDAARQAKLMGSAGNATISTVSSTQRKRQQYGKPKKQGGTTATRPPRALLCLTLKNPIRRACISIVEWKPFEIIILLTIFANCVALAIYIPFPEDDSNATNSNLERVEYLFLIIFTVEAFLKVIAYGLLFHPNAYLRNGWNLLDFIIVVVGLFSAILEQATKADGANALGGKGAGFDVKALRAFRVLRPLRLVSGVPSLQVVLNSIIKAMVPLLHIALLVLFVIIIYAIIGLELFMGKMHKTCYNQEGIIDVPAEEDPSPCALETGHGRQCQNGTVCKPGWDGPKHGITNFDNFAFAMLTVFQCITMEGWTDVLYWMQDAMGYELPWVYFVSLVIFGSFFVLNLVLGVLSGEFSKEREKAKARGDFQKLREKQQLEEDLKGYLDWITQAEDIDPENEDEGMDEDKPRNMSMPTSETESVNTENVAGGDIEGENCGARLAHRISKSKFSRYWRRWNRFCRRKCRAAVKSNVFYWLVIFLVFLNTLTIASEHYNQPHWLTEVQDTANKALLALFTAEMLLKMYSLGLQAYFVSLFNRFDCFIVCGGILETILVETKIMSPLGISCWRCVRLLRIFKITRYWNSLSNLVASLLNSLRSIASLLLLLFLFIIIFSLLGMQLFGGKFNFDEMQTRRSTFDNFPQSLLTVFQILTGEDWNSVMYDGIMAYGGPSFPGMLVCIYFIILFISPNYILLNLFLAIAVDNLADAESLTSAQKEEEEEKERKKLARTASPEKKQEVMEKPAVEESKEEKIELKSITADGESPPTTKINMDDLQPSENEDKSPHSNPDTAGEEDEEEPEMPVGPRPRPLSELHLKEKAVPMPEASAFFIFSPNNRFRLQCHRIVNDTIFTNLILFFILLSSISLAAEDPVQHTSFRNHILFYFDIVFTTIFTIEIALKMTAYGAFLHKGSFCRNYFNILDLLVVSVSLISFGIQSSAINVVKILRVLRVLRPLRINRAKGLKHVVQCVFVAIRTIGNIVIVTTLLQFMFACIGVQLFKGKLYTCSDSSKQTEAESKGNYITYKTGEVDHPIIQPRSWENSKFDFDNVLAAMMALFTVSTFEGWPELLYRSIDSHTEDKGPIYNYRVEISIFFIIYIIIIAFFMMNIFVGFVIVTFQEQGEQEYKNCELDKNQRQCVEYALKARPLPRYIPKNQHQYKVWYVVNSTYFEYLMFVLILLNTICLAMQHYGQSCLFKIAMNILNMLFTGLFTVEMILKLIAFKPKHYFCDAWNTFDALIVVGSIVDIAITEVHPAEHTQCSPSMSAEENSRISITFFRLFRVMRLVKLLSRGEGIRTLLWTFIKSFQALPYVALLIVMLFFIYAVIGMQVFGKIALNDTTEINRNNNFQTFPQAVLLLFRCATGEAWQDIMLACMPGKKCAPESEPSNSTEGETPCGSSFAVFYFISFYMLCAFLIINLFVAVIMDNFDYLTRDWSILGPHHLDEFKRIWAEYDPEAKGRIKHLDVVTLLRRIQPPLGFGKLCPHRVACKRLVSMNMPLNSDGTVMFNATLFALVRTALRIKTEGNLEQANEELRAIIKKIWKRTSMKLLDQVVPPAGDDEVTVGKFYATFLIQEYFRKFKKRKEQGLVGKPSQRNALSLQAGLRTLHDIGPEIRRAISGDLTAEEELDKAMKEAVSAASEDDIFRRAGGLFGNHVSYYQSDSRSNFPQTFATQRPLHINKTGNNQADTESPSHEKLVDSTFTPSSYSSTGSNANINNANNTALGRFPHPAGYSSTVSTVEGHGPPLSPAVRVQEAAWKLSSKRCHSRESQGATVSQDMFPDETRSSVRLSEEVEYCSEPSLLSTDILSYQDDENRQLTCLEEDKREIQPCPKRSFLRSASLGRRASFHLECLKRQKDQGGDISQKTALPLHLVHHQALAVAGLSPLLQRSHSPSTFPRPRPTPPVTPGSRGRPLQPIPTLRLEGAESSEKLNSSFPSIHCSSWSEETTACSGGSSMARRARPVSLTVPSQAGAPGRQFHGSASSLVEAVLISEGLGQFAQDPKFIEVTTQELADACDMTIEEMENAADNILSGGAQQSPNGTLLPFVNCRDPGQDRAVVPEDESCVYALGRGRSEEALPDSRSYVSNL

In the case of `COc1cc(C)c(/C=C/C(C)=C/C=C/C(C)=C/C(=O)O)c(C)c1C` [ACITRETIN], the half-maximal activity concentration (AC50) in assay [1], in [2], in assay [3], in assay [4], in assay [5] and in assay [6] was over 10 µM in each case. The AC50 in assay [7] was over 30 µM; in assay [8], over 30 µM; in assay [9], over 30 µM; at Progesterone receptor, over 30 µM; in assay [10], 0.517 µM; in [11] it was over 10 µM.
On to `Oc1ccc(CCNCCCCCCNCCc2ccccc2)cc1O` [DOPEXAMINE], for which the AC50 in assay [1] was 3.8 µM; in assay [2], over 30 µM; in [3], over 30 µM; in assay [4], over 30 µM; in assay [5] it was over 30 µM; in [6], over 30 µM. The AC50 in assay [7] was over 30 µM; in assay [8], over 30 µM; in assay [9], 29 µM; at Progesterone receptor, over 30 µM; in assay [10] it was over 30 µM; in assay [11] it was 0.4 µM.
For the molecule `C=CC[N+]1([C@H]2C[C@H]3[C@@H]4CC[C@H]5C[C@H](O)[C@@H](N6CCOCC6)C[C@]5(C)[C@H]4CC[C@]3(C)[C@H]2OC(C)=O)CCCC1` [ROCURONIUM], the AC50 in assay [1], in assay [2], in assay [3], in [4], in assay [5] and in assay [6] was over 30 µM each time. In addition, the concentration at half-maximal activity (AC50) (in assay [7]; in assay [8]; in [9]; at Progesterone receptor; in [10]; in assay [11]) was over 30 µM throughout.
Regarding `Clc1ccc(CCC(Cn2ccnc2)Sc2c(Cl)cccc2Cl)cc1` (stereo not drawn) [BUTOCONAZOLE], the concentration at half-maximal activity (AC50) in assay [1] is over 30 µM; in assay [2] it was 17 µM; in assay [3], over 30 µM; in assay [4] it was over 30 µM; in [5] it was over 30 µM; in assay [6], over 30 µM. Further, the AC50 in assay [7] was over 30 µM; in assay [8], over 30 µM; in assay [9], 11 µM; at Progesterone receptor, 9.1 µM; in assay [10] it was 14 µM; in assay [11], over 30 µM.
